Consider one compound from patent US20030125319A1, “Methods for assessing, improving, or maintaining urogenital health in postmenopausal women” (priority 2000, published 2003).

For the assay, the system named is postmenopausal women. The assay can be described thus: Self-assessment questionnaire (subjective vaginal health questionnaire) in postmenopausal women taking the estrogen agonist/antagonist. The format is in vivo, human. Conditions: self-reported by postmenopausal women taking the compound. How it is done: The subject self-assessment of vaginal health is performed with a subjective vaginal health questionnaire. Typically, the questionnaire is performed in private and the results kept confidential. The questionnaire may include an envelope that is specially encoded to later identify the treatment that the subject is undergoing. An additional question may be added in subsequent questionnaires following administration of the baseline questionnaire, which question would ask: “Have you had any positive or negative vaginal changes since you have been taking the study medication?” This question may be coupled to a multiple-point ratings scale ranging from “mostly positive changes,” to “moderately positive changes,” to “mildly positive changes,” to “no changes,” to “mildly negative changes,” to “moderately negative changes,” to “mostly negative changes.”

For `O=C(O)C(O)C(O)C(=O)O.Oc1ccc2c(c1)CC[C@H](c1ccccc1)[C@@H]2c1ccc(OCCN2CCCC2)cc1` [(−)-cis-6-phenyl-5-[4-(2-pyrrolidin-1-yl-ethoxy)-phenyl]-5,6,7,8-tetrahydro-naphthalene-2-ol, D-tartrate salt], the “frequency of sexual intercourse” value was “increased frequency”, the intensity of orgasms entry is recorded as “increased intensity” and the number of orgasms entry is “increased number”.
